{
  "source": "patent US6784153B1",
  "about": "“Methods of homing molecules to lung using membrane dipeptidase” (The Burnham Institute, priority 1998, dated 2004)",
  "key": {"[1]": {"test_system": "lung primary cells", "experiment": "phage binding assay on lung primary cells", "design": "species or system mice", "conditions": "150 μM peptide", "protocol": "Phage binding to primary cells was performed as follows. Briefly, Balb/c mice (Harlan Sprague Dawley) were anesthetized with 0.017 ml/g of Avertin as described in Gardner et al., Lab. […] Under deep anesthesia, mice were perfused through the heart with 10 ml Dulbecco's modified Eagle's medium (DMEM; Irvine Scientific; Santa Ana, Calif.). The lungs, kidneys and brain were then collected, minced, placed in 2 ml of DMEM containing 0.5% BSA (Intergen; Purchase, N.Y.) and 0.5 μg/ml collagenase V (SIGMA) and incubated at 37° C. for 25 minutes. Following collagenase treatment, the tissue was forced through a […] pore cell strainer (Becton Dickinson; Franklin Lake, N.J.). The filtered cells were washed once with 10 ml DMEM supplemented with 10% serum.\nFor the binding reaction, 10^9 transducing units (TU) of phage were incubated with 5×10^6 cells in 1 ml DMEM supplemented with 10% serum. The binding was performed at 4° C. for 2 hours with gentle agitation. After the binding reaction, the cells were washed four times with 1 ml of DMEM supplemented with 10% serum at room temperature for 5 to 10 minutes each time. The cells were centrifuged, and the cell pellet resuspended in 100 μl of DMEM and transferred to a new tube. […] The bacteria were then diluted in 10 ml of LB culture media supplemented with 0.2 μg/ml tetracycline, and incubated for another 30 minutes at room temperature. Serial dilutions of the bacterial culture were plated on LB plates containing 40 μg/ml tetracycline. Plates were incubated at 37° C. overnight before the colonies were counted (transducing units, TU)."}, "[2]": {"molecular_target": "T1, 55 kDa lung vascular surface protein (Mus musculus, UniProt P31428)", "T1 construct": "from tissue; host or cells: Balb/c mouse lung, in vivo biotinylated, octylglucoside extract", "T1 sequence (P31428 17-384)": "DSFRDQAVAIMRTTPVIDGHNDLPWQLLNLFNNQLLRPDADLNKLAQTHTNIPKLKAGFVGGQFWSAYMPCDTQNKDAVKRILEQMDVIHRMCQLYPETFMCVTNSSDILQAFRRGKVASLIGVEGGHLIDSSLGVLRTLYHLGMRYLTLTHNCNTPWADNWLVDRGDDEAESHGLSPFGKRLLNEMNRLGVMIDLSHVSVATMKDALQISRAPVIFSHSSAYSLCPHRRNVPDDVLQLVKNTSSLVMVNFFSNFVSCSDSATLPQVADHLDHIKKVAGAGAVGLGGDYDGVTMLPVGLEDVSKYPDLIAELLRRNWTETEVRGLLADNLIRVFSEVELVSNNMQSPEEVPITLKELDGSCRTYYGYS", "experiment": "peptide affinity chromatography of in vivo biotinylated lung extract", "assay_type": "binding", "conditions": "elution with GFE-1 peptide", "protocol": "In vivo biotinylation of endothelial cell surface proteins was performed as previously described in De La Fuente et al., Am. J. Physiol. […] Briefly, Balb/c mice were anesthetized with Avertin and perfused slowly through the heart for 10 to 15 minutes with approximately 15 ml of PBS containing 0.5 mg/ml of sulfo-NHS-LC-biotin (Pierce; Rockford, Ill.). Well perfused lungs or control tissues such as brain were then collected and incubated on ice for 20 minutes. The tissues were then homogenized for preparation of extracts as described further below.\nFor preparation of extracts, mouse or rat lungs were first minced and then homogenized with a Brinkman homogenizer (Brinkman; Wesbury, N.Y.) in a minimal volume (2.5 ml/g of tissue) of cold PBS containing 100 mM N-octyl-β-D-glucopyranoside (Calbiochem; La Jolla, Calif.) with 1 mM phenylmethylsulfonyl fluoride (PMSF), 20 μg/ml aprotinin and 1 μg/ml leupeptin (PBS/octylglucoside). The homogenized tissue was incubated on ice for 2 hours, and then centrifuged at 12,000×g for 30 minutes to remove cell debris. The pooled supernatants were cleared of any debris prior to affinity chromatogaphy.\nAll steps were performed at 4° C. […] The matrix contained approximately 2 mg/ml of peptide. […] The extract was applied to the column, and the flow-through re-applied over a period of 90 minutes. The column was then washed with 20 volumes of column buffer. […]"}, "[3]": {"test_system": "skin", "experiment": "immunohistologic analysis of skin homing phage", "assay_type": "in vivo, mice", "protocol": "Phage displaying homing peptides were detected in lung, pancreas and skin by immunostaining histologic sections obtained 5 min after administration of phage expressing a lung, pancreas or skin homing peptide (“peptide-phage”) to a mouse. Following administration of the peptide-phage, mice were handled as described above and various organs, including lung, pancreas and skin, were removed and fixed in Bouin's solution (SIGMA). Histologic sections were prepared and reacted with anti-M13 (phage) antibodies (Pharmacia Biotech; see U.S. Pat. No. 5,622,699, supra, 1997; Pasqualini and Ruoslahti, supra, 1996). Visualization of the bound anti-M13 antibody was performed using a second antibody conjugated to peroxidase (SIGMA) according to the manufacturer's instructions.\nExperiments were performed in skin using phage displaying the skin homing peptide CVALCREACGEGC (SEQ ID NO: 3). In these experiments, histological samples from the skin as well as control organs and tissues including lung and pancreas were prepared and examined by immunostaining as described above."}, "[4]": {"molecular_target": "T2, murine MDP (Mus musculus, UniProt P31428)", "T2 construct": "The amplified 1.3 kb murine MDP cDNA was digested with KpnI and XbaI, and inserted into the same sites of the pcDNA3 expression vector; expressed in transfected cells; host or cells: COS-1 cells, pcDNA3 expression vector", "T2 sequence (P31428 17-384)": "T1 sequence (P31428 17-384)", "experiment": "phage binding to COS-1 cells transfected with MDP", "conditions": "5×10^6 COS-1 cells, 10^10 TU phage", "protocol": "The COS-1 cell line, which is known to have low or no detectable level of MDP activity, has been used extensively to study MDP structure and function (Keynan et al., supra, 1996; Keynan et al., Biochem, J. 326:47-51 (1997)). COS-1 cells were trasfected with murine MDP and used to assay binding to SEQ ID NOS: 1 and 2 as described below.\nFor transfection into COS-1 cells, a murine MDP expression vector was prepared as follows. Total mouse lung RNA was isolated using Qiagen RNA purification columns (Qiagen; Santa Clarita, Calif.) and used as a template for first strand cDNA synthesis with reverse transcriptase and a mixture of random hexamers and poly-dT oligonucleotides (GIBCO/BRL; Grand Island, N.Y.). Mouse MDP cDNA (Pasqualini et al., J. Cell Biol. 130:1189-1196 (1995)) was amplified from the cDNA pool by PCR using the oligonucleotide pair: […] (SEQ ID NO: 446), which contains a KpnI adaptor, and […] (SEQ ID NO: 447), which contains an XbaI adaptor, using Taq polymerase from GIBCO/BRL. The amplified 1.3 kb murine MDP cDNA was digested with KpnI and XbaI, and inserted into the same sites of the pcDNA3 expression vector (Invitrogen; Carlsbad, Calif.) using DNA restriction enzymes and T4 DNA ligase from New England Biolabs (Beverly, Mass.). Successful cloning of the murine MDP cDNA was confirmed by DNA sequencing. Transfection of the COS-1 cells was performed with the Superfect Reagent from Qiagen as recommended by the manufacturer.\n(§1) Phage binding to COS-1 cells transfected with MDP was determined as follows. Briefly, 10^7 COS-1 cells were transfected with 10 μg of either the MDP expression vector or the vector alone. After 48 hours, cells were scraped gently from the dish, washed once, and subjected to the phage binding assay or membrane dipeptidase activity assay described above. For the phage binding assay, 5×10^6 cells and 10^10 transducing units (TU) of phage input were used. For measurement of membrane dipeptidase activity, 10^6 cells were lysed in 100 μl of PBS/octylglycoside without protease inhibitors. A 10 μl aliquot of the extract was used to measure MDP activity."}, "[5]": {"test_system": "skin", "experiment": "in vivo homing of phage displaying peptides to skin", "design": "species or system mice", "protocol": "For in vivo panning of skin, two month old BALB/c nude mice were used to avoid contamination by hair. The mice were injected intravenously with phage as described above and, after perfusion through the heart, the skin was removed in large sections and placed on an ice cold plate with the hypodermis facing up. The skin was scraped with a scalpel to remove mostly hypodermis, which was then processed for phage recovery as described below.\nApproximately 250 to 300 individual bacterial colonies containing phage recovered from the various organs or tissues were grown for 16 hr in 5 ml NZY/tet. In some experiments, approximately 1000 individual bacteria containing phage were picked and the phage were amplified in 2 ml of NZY/tet or the entire plate containing phage was scraped, pooled and grown in bulk and processed for injection. Where phage were cultured separately, the cultures were pooled and the phage were injected into mice or rats as described above for a second round of in vivo panning. In some experiments, a third or fourth round of panning was performed. Phage DNA was purified from individual bacterial colonies obtained and the DNA sequences encoding the peptides expressed by selected phage were determined (see Koivunen et al., supra, 1994b).\nin After two or three rounds of in vivo panning of mice injected with a cyclic CX3CX3CX3C (SEQ ID NO: 25) phage display library, the peptide sequence CVALCREACGEGC (SEQ ID NO: 3), which appeared repeatedly in skin, was identified (Table 1). To determine the specificity of skin homing of the sequence CVALCREACGEGC (SEQ ID NO: 3), phage displaying the peptide was amplified individually, diluted to the same input titer and administered to mice. Following administration, control kidney and brain organ were removed and the number of TU of phage in skin, kidney and brain was determined.\nPeptides that were identified more than one time during screening are indicated by an asterisk. For example, 14% of recovered CX3CX3CX3C (SEQ ID NO: 25) phage that homed to head skin had the sequence CVDVCCDGCPVCC (SEQ ID NO: 437). Phage having the sequence RVPLSGDVEH (SEQ ID NO: 438), LRVMSFTSGQ (SEQ ID NO: 439), or RFSVGSLFGS (SEQ ID NO: 440) each constituted 14% of recovered CX10C (SEQ ID NO: 30) phage that homed to head skin."}, "[6]": {"test_system": "MDP", "conditions": "cited from earlier work"}, "[7]": {"molecular_target": "T3, MDP (Mus musculus, UniProt P31428)", "T3 construct": "The amplified 1.3 kb murine MDP cDNA was digested with KpnI and XbaI, and inserted into the same sites of the pcDNA3 expression vector; expressed in transfected cells; host or cells: COS-1 cells, pcDNA3 expression vector", "T3 sequence (P31428 17-384)": "T1 sequence (P31428 17-384)", "experiment": "inhibition of MDP activity (hydrolysis of Gly-D-Phe, fluorimetric)", "assay_type": "biochemical, murine", "conditions": "Gly-D-Phe 0.5 mM; extracts from MDP-expressing COS-1 cells", "protocol": "[…] […] Fluorescence was measured using an fmax fluorescence microplate reader from Molecular Devices (Sunnyvale, Calif.).\nas §1\nFluorimetric detection of D-Phe was performed as described above."}, "[8]": {"test_system": "C8161 human melanoma cells"}},
  "data": [
    {"compound": "GRGESP: control peptide [reference compound]", "values": [
      {"measurement": "inhibition of GFE-1 phage binding to lung cells", "setting": "[1]", "result": "no effect"},
      {"measurement": "binding of lung surface protein to peptide affinity column", "setting": "[2]", "result": "No proteins in the 55 kDa range were detected"}
    ]},
    {"compound": "CVALCREACGEGC [skin homing peptide]", "values": [
      {"measurement": "immunostaining of skin", "setting": "[3]; 5 min after phage", "result": "staining in blood vessels of the hypodermis"},
      {"measurement": "staining of lung and pancreas after skin homing phage", "setting": "[3]; control tissues", "result": "no staining was observed in control the lung and pancreas"},
      {"measurement": "phage bound to MDP transfected cells than to mock transfected cells", "setting": "[4]", "result": "no specific binding"},
      {"measurement": "% OF MOTIF AMONG ALL CLONES", "setting": "[5]; SKIN", "result": 6, "unit": "%"},
      {"measurement": "skin/brain phage ratio", "setting": "[5]; SKIN section", "result": 7},
      {"measurement": "phage bound to skin than to kidney or brain", "setting": "[5]; individually amplified phage", "result": 7, "unit": "×"},
      {"measurement": "enriched in skin over unselected phage", "setting": "[5]; mouse, in vivo", "result": 7, "unit": "×"},
      {"measurement": "selectivity for skin over unselected phage and over background in brain and kidney", "setting": "[5]; mouse, in vivo", "result": 7, "unit": "fold"}
    ]},
    {"compound": "CCCCC/C=C(\\NC(=O)C1CC1(C)C)C(=O)O", "note": "(racemic) [Z-2-(2,2 dimethylcyclopropanecarboxamido)-2-octenoic acid]", "values": [
      {"measurement": "activity of resolved isomers", "setting": "[6]", "result": "Activity resides in the dextrorotatory isomer"}
    ]},
    {"compound": "O=c1[nH]cc(F)c(=O)[nH]1", "note": "[CARAC, reference compound]", "values": [
      {"measurement": "inhibition of hydrolysis of Gly-D-Phe by MDP", "setting": "[7]", "result": "did not inhibit the enzyme"},
      {"measurement": "toxicity to the melanoma cells", "setting": "[8]", "result": "Neither the GFE-1 (SEQ ID NO: 1) or CARAC (SEQ ID NO: 443) peptides exhibited toxicity"}
    ]}
  ]
}
